From patent US20250042905A1, “DIHYDROPYRROLO[3,4-C]PYRAZOLE DERIVATIVES AND THEIR USE IN DIAGNOSIS” (AC IMMUNE SA, priority 2021, published 2025)

Biological target: T1, PD brain-derived alpha-synuclein aggregates (Homo sapiens, UniProt P37840)
T1 construct: PD brain-derived alpha-synuclein aggregates were spotted onto microarray slides; from tissue; host or cells: human Parkinson's disease patient brain
Assay: Micro-radiobinding competition assay for the determination of binding affinity
Protocol: Micro-Radiobinding Competition Assay for the Determination of Binding Affinity
PD brain-derived alpha-synuclein aggregates were spotted onto microarray slides. The slides were incubated with tritiated reference alpha-synuclein ligand at 20 nM or 30 nM and the example compounds (non-radiolabelled) at 1 μM and 100 nM. In some cases, the non-radiolabelled example compounds were further assessed for a range of different concentrations, varying from 0.05 nM to 2 μM. After incubation, slides were washed and scanned by a real-time autoradiography system (BeaQuant, ai4R). Quantification of the signal was performed by using the Beamage image analysis software (ai4R). Non-specific signal was determined with an excess of non-radiolabelled reference alpha-synuclein ligand (2 μM) and specific binding was calculated by subtracting the non-specific signal from the total signal. Competition was calculated as percent, where 0% was defined as the specific binding in the presence of vehicle and 100% as the values obtained in the presence of excess of the non-radiolabelled reference alpha-synuclein ligand. Ki values were calculated in GraphPad Prism7 by applying a nonlinear regression curve fit using a one site, specific binding model. All measurements were performed with at least two technical replicates.
Table 4: Assessment of binding affinity by micro-radiobinding competition assay on human PD brain-derived alpha-synuclein aggregates.

[1] = non-radiolabelled example compound at 100 nM, competition with tritiated reference alpha-synuclein ligand (20 nM or 30 nM), 100% = excess non-radiolabelled reference ligand
[2] = non-radiolabelled example compound at 1 μM, competition with tritiated reference alpha-synuclein ligand (20 nM or 30 nM), 100% = excess non-radiolabelled reference ligand

SMILES | inhibition at 0.1 µM (non-radiolabelled example compound at 100 nM, competition with tritiated reference alpha-synuclein ligand (20 nM or 30 nM), 100% = excess non-radiolabelled reference ligand, read-out: Competition at 100 nM (%)) [%] | inhibition at 1 µM (non-radiolabelled example compound at 1 μM, competition with tritiated reference alpha-synuclein ligand (20 nM or 30 nM), 100% = excess non-radiolabelled reference ligand, read-out: Competition at 1 μM (%)) [%] | Competition at 100 nM (%) [1] [%] | Competition at 1 μM (%) [2] [%] | Ki (concentration range 0.05 nM to 2 μM, nonlinear regression, one site specific binding model) [nM]
O=C1c2cn(-c3ccc(C(F)(F)F)nn3)nc2CN1c1cccnc1 [Example 35, 5-(pyridin-3-yl)-2-(6-(trifluoromethyl)pyridazin-3-yl)-5,6-dihydropyrrolo[3,4-c]pyrazol-4(2H)-one] | 29 | 34 | – | – | –
O=C1c2cn(-c3cnc(N4CC[C@H](F)C4)nc3)nc2CN1c1cccnc1 [Example 36, 2-2-[(3S)-3-fluoropyrrolidin-1-yl]pyrimidin-5-yl-5-(pyridin-3-yl)-2H,4H,5H,6H-pyrrolo[3,4-c]pyrazol-4-one] | – | – | 37 | 64 | –
Cl.O=C1c2cn(-c3cnc(N4CC[C@@H](F)C4)nc3)nc2CN1c1cccnc1 [Example 37, 2-2-[(3R)-3-fluoropyrrolidin-1-yl]pyrimidin-5-yl-5-(pyridin-3-yl)-2H,4H,5H,6H-pyrrolo[3,4-c]pyrazol-4-one hydrochloride] | – | – | 32 | 78 | 356
